Data taken from US20200002283A1, “PYRAZOLE DERIVATIVES HAVING ACTIVITY AGAINST PAIN” (priority 2016, published 2020).
Where two headings read alike, the source gives them in different places. Values belong to the molecule of their own block, whether it stands above or below them.

Legend:
[1] = target: Human α2δ-1 subunit of Cav2.2 calcium channel (Homo sapiens, UniProt P54289); test: Human α2δ-1 subunit of Cav2.2 calcium channel assay ([3H]-Gabapentin binding)
Description: Human α2δ-1 Subunit of Cav2.2 Calcium Channel Assay
Human α2δ-1 enriched membranes (2.5 μg) were incubated with 15 nM of radiolabeled [3H]-Gabapentin in assay buffer containing Hepes-KOH 10 mM, pH 7.4. NSB (non specific binding) was measured by adding 10 μM pregabalin. After 60 min incubation at 27° C., binding reaction was terminated by filtering through Multiscreen GF/C (Millipore) presoaked in 0.5% polyethyleneimine in Vacuum Manifold Station, followed by 3 washes with ice-cold filtration buffer containing 50 mM Tris-HCl, pH 7.4. Filter plates were dried at 60° C. for 1 hour and 30 μl of scintillation cocktail were added to each well before radioactivity reading. Readings were performed in a Trilux 1450 Microbeta radioactive counter (Perkin Elmer).

human μ-opioid receptor = target: T1, human μ-opioid receptor (Homo sapiens, UniProt P35372); test: Human μ-opioid receptor radioligand assay ([3H]-DAMGO); format: binding
T1 construct: expressed in transfected cells; host or cells: CHO-K1
Description: Human μ-Opioid Receptor Radioligand Assay
To investigate binding properties of test compounds to human μ-opioid receptor, transfected CHO-K1 cell membranes and [^3H]-DAMGO (Perkin Elmer, ES-542-C), as the radioligand, were used. The assay was carried out with 20 μg of membrane suspension, 1 nM of [^3H]-DAMGO in either absence or presence of either buffer or 10 μM Naloxone for total and non-specific binding, respectively. Binding buffer contained Tris-HCl 50 mM, MgCl2 5 mM at pH 7.4. Plates were incubated at 27° C. for 60 minutes. After the incubation period, the reaction mix was then transferred to MultiScreen HTS, FC plates (Millipore), filtered and plates were washed 3 times with ice-cold 10 mM Tris-HCL (pH 7.4). Filters were dried and counted at approximately 40% efficiency in a MicroBeta scintillation counter (Perkin-Elmer) using EcoScint liquid scintillation cocktail.

[2] = human α2δ-1 enriched membranes, 15 nM [3H]-Gabapentin, read-out: α2δ-1 binding
[3] = transfected CHO-K1 cell membranes, 1 nM [3H]-DAMGO, read-out: μ binding

Sequence of Human α2δ-1 subunit of Cav2.2 calcium channel (P54289 25-1103): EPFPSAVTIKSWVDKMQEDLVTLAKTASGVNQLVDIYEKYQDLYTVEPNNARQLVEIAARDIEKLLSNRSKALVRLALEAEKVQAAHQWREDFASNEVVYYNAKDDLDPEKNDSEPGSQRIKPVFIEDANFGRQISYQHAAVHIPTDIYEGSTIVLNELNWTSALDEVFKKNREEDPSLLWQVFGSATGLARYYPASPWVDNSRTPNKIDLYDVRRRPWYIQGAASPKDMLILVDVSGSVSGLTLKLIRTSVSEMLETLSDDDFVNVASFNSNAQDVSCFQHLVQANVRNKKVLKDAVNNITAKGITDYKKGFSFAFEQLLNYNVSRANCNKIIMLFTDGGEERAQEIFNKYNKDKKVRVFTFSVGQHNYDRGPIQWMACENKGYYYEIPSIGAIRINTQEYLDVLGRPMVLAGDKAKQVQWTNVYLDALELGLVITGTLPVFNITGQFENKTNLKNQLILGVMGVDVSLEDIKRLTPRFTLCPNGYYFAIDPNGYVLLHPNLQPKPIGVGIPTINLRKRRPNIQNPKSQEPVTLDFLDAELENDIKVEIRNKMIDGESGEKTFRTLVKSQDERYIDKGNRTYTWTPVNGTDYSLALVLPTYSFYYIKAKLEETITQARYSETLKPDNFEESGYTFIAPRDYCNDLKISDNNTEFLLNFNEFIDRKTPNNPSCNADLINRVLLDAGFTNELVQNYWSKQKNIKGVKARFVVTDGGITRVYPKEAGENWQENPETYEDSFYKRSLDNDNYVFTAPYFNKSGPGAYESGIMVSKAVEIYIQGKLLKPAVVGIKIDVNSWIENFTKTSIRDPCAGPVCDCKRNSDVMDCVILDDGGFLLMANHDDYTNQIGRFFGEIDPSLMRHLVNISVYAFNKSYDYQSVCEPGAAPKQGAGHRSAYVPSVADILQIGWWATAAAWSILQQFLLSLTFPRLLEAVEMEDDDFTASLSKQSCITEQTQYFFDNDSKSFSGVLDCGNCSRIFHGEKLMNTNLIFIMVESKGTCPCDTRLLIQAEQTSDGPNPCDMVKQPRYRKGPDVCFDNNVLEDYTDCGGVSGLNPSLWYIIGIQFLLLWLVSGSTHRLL
T1 sequence (P35372 whole entry): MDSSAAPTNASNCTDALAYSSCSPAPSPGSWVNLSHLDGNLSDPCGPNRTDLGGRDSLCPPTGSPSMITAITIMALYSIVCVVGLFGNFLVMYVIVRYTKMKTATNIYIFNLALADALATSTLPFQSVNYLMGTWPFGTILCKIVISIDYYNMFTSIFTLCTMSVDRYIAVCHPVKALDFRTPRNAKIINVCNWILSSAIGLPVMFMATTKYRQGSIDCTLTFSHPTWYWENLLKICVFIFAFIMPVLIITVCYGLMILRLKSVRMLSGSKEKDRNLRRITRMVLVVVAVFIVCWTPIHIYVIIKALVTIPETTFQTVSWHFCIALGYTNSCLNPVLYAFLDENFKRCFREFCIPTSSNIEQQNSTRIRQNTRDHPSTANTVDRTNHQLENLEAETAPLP

Ki [1, 2]: 500 to 3000 nM
Ki (human μ-opioid receptor; [3]): > 500 nM
SMILES: CCNCc1cc(Cc2ccc(OC)cc2)n(CC(C)C)n1 [Example 23, N-{[1-Isobutyl-5-(4-methoxybenzyl)-1H-pyrazol-3-yl]methyl}ethanamine]

Ki [1, 2]: 500 to 3000 nM
Ki (human μ-opioid receptor; [3]): > 500 nM
SMILES: COc1ccc(Cc2cc(CN)nn2CC(C)C)cc1 [Example 11, [1-Isobutyl-5-(4-methoxybenzyl)-1H-pyrazol-3-yl]methanamine]

Ki [1, 2]: 500 to 3000 nM
Ki (human μ-opioid receptor; [3]): > 500 nM
SMILES: COc1ccc(Cc2cc(CN)nn2-c2ccccc2Cl)cc1 [Example 2, [1-(2-Chlorophenyl)-5-(4-methoxybenzyl)-1H-pyrazol-3-yl]methanamine]

Ki [1, 2]: > 5000 nM
Ki (human μ-opioid receptor; [3]): > 500 nM
SMILES: CC(c1ccccc1)n1nc(CN)cc1Cc1ccc(O)cc1 (stereo not drawn) [Example 49, 4-{[3-(Aminomethyl)-1-(1-phenylethyl)-1H-pyrazol-5-yl]methyl}phenol]

Ki [1, 2]: 500 to 3000 nM
Ki (human μ-opioid receptor; [3]): > 500 nM
SMILES: COc1ccc(Cc2cc(CN)nn2-c2ccccc2)cc1 [Example 19, [5-(4-Methoxybenzyl)-1-phenyl-1H-pyrazol-3-yl]methanamine]

Ki [1, 2]: 500 to 3000 nM
Ki (human μ-opioid receptor; [3]): > 500 nM
SMILES: NCc1cc(Cc2ccc(Nc3nccs3)cc2)n(-c2ccc(Cl)cc2Cl)n1 [Example 74, N-(4-{[3-(Aminomethyl)-1-(2,4-dichlorophenyl)-1H-pyrazol-5-yl]methyl}phenyl)thiazol-2-amine]

Ki [1, 2]: > 5000 nM
Ki (human μ-opioid receptor; [3]): > 500 nM
SMILES: COc1ccc(C(C)(C)c2cc(C(C)N)nn2-c2ccc(Cl)cc2Cl)cc1 (stereo not drawn) [Example 33, 1-[1-(2,4-Dichlorophenyl)-5-(2-(4-methoxyphenyl)propan-2-yl)-1H-pyrazol-3-yl]ethanamine]

Ki [1, 2]: > 5000 nM
Ki (human μ-opioid receptor; [3]): > 500 nM
SMILES: COc1ccc(Cc2cc(C(C)N)nn2-c2ccc(Cl)cc2Cl)cc1F (stereo not drawn) [Example 30]

Ki [1, 2]: > 5000 nM
Ki (human μ-opioid receptor; [3]): > 500 nM
SMILES: CC(N)c1cc(Cc2ccc(O)cc2)n(CCc2ccccc2)n1 (stereo not drawn) [Example 67, 4-{[3-(1-Aminoethyl)-1-phenethyl-1H-pyrazol-5-yl]methyl}phenol]

Ki [1, 2]: > 5000 nM
Ki (human μ-opioid receptor; [3]): > 500 nM
SMILES: CCCC(N)c1cc(Cc2ccc(OC)c(F)c2)n(-c2ccc(Cl)cc2Cl)n1 (stereo not drawn) [Example 31, 1-[1-(2,4-Dichlorophenyl)-5-(3-fluoro-4-methoxybenzyl)-1H-pyrazol-3-yl]butan-1-amine]

Ki [1, 2]: 500 to 3000 nM
Ki (human μ-opioid receptor; [3]): > 500 nM
SMILES: COc1ccc(Cc2cc(CN)nn2-c2ccc(F)cc2Cl)cc1 [Example 5, [1-(2-Chloro-4-fluorophenyl)-5-(4-methoxybenzyl)-1H-pyrazol-3-yl]methanamine]

Ki [1, 2]: 3000 to 5000 nM
Ki (human μ-opioid receptor; [3]): > 500 nM
SMILES: COc1ccc(Cc2cc(CN)nn2-c2ccc(Cl)cc2)cc1 [Example 3, [1-(4-Chlorophenyl)-5-(4-methoxybenzyl)-1H-pyrazol-3-yl]methanamine]

Ki [1, 2]: 500 to 3000 nM
Ki (human μ-opioid receptor; [3]): > 500 nM
SMILES: CC(N)c1cc(Cc2ccc(OCCO)cc2)n(-c2ccc(Cl)cc2Cl)n1 (stereo not drawn) [Example 75, 2-(4-{[3-(1-Aminoethyl)-1-(2,4-dichlorophenyl)-1H-pyrazol-5-yl]methyl}phenoxy)ethan-1-ol]

Ki [1, 2]: 500 to 3000 nM
Ki (human μ-opioid receptor; [3]): > 500 nM
SMILES: COc1ccc(Cc2cc(CN)nn2C(C)c2ccccc2)cc1 (stereo not drawn) [Example 16, [5-(4-Methoxybenzyl)-1-(1-phenylethyl)-1H-pyrazol-3-yl]methanamine]

Second part, the molecule before the results:

SMILES: NCc1cc(Cc2ccc(O)cc2)n(-c2ccc(O)cc2Cl)n1 [Example 41, 4-[3-(Aminomethyl)-5-(4-hydroxybenzyl)-1H-pyrazol-1-yl]-3-chlorophenol]
Ki [1]: > 5000 nM
Ki (human μ-opioid receptor): < 100 nM

SMILES: CC(C)(N)c1cc(Cc2ccc(O)cc2)n(-c2ccc(Cl)cc2Cl)n1 [Example 57, 4-{[3-(2-Aminopropan-2-yl)-1-(2,4-dichlorophenyl)-1H-pyrazol-5-yl]methyl}phenol]
Ki [1]: 3000 to 5000 nM
Ki (human μ-opioid receptor): < 100 nM

SMILES: COc1ccc(Cc2cc(CN)nn2Cc2ccc(Cl)cc2Cl)cc1 [Example 15, [1-(2,4-Dichlorobenzyl)-5-(4-methoxybenzyl)-1H-pyrazol-3-yl]methanamine]
Ki [1, 2]: 500 to 3000 nM
Ki (human μ-opioid receptor; [3]): > 500 nM

SMILES: CC(C)(N)c1cc(Cc2ccc(O)c(F)c2)n(-c2ccc(Cl)cc2Cl)n1 [Example 56, 4-{[3-(2-Aminopropan-2-yl)-1-(2,4-dichlorophenyl)-1H-pyrazol-5-yl]methyl}-2-fluorophenol]
Ki [1]: 3000 to 5000 nM
Ki (human μ-opioid receptor): < 100 nM

SMILES: COc1ccc(-n2nc([C@@H](C)N)cc2Cc2ccc(O)cc2)c(Cl)c1 [Example 69, (R)-4-{[3-(1-Aminoethyl)-1-(2-chloro-4-methoxyphenyl)-1H-pyrazol-5-yl]methyl}phenol]
Ki [1]: > 5000 nM
Ki (human μ-opioid receptor): 100 to 500 nM

SMILES: COc1ccc(-n2nc(C(C)N)cc2Cc2ccc(O)cc2)c(Cl)c1 (stereo not drawn) [Example 27, 4-{[3-(1-Aminoethyl)-1-(2-chloro-4-methoxyphenyl)-1H-pyrazol-5-yl]methyl}phenol]
Ki [1]: < 500 nM
Ki (human μ-opioid receptor): < 100 nM

SMILES: COc1ccc(Cc2cc(C(C)N)nn2-c2ccc(Cl)cc2Cl)cc1 (stereo not drawn) [Example 24, 1-[1-(2,4-Dichlorophenyl)-5-(4-methoxybenzyl)-1H-pyrazol-3-yl]ethanamine]
Ki [1]: 500 to 3000 nM
Ki (human μ-opioid receptor): 100 to 500 nM

SMILES: NCc1cc(Cc2ccc(O)cc2)n(Cc2ccccc2Cl)n1 [Example 47, 4-{[3-(Aminomethyl)-1-(2-chlorobenzyl)-1H-pyrazol-5-yl]methyl}phenol]
Ki [1, 2]: 500 to 3000 nM
Ki (human μ-opioid receptor; [3]): > 500 nM

SMILES: CC(N)c1cc(Cc2ccc(O)c(F)c2)n(-c2ccc(Cl)cc2Cl)n1 (stereo in doubt) [Example 64, (R)-4-{[3-(1-Aminoethyl)-1-(2,4-dichlorophenyl)-1H-pyrazol-5-yl]methyl}-2-fluorophenol]
Ki [1]: > 5000 nM
Ki (human μ-opioid receptor): > 500 nM

SMILES: COc1cc(Cl)ccc1-n1nc(C(C)N)cc1Cc1ccc(O)cc1 (stereo not drawn) [Example 29, 4-{[3-(1-Aminoethyl)-1-(4-chloro-2-methoxyphenyl)-1H-pyrazol-5-yl]methyl}phenol]
Ki [1, 2]: > 5000 nM
Ki (human μ-opioid receptor; [3]): > 500 nM

SMILES: CC(N)c1cc(Cc2ccc(O)c(F)c2)n(-c2ccc(Cl)cc2Cl)n1 (stereo in doubt) [Example 63, (S)-4-{[3-(1-Aminoethyl)-1-(2,4-dichlorophenyl)-1H-pyrazol-5-yl]methyl}-2-fluorophenol]
Ki [1]: > 5000 nM
Ki (human μ-opioid receptor): > 500 nM

SMILES: CS(=O)(=O)Nc1ccc(Oc2cc(CN)nn2-c2ccc(Cl)cc2Cl)cc1 [Example 18, N-(4-{[3-(Aminomethyl)-1-(2,4-dichlorophenyl)-1H-pyrazol-5-yl]oxy}phenyl)methanesulfonamide]
Ki [1, 2]: > 5000 nM
Ki (human μ-opioid receptor; [3]): > 500 nM

SMILES: CCCC(N)c1cc(Cc2ccc(O)c(F)c2)n(-c2ccc(Cl)cc2Cl)n1 (stereo not drawn) [Example 53, 4-{[3-(1-Aminobutyl)-1-(2,4-dichlorophenyl)-1H-pyrazol-5-yl]methyl}-2-fluorophenol]
Ki [1]: < 500 nM
Ki (human μ-opioid receptor): < 100 nM

SMILES: CC(N)Cc1cc(Cc2ccc(O)cc2)n(-c2ccc(Cl)cc2Cl)n1 (stereo not drawn) [Example 68, 4-{[3-(2-Aminopropyl)-1-(2,4-dichlorophenyl)-1H-pyrazol-5-yl]methyl}phenol]
Ki [1]: > 5000 nM
Ki (human μ-opioid receptor): < 100 nM

SMILES: COc1ccc(-n2nc(CN)cc2Cc2ccc(O)cc2)c(Cl)c1 [Example 37, 4-{[3-(Aminomethyl)-1-(2-chloro-4-methoxyphenyl)-1H-pyrazol-5-yl]methyl}phenol]
Ki [1]: 500 to 3000 nM
Ki (human μ-opioid receptor): < 100 nM

SMILES: CNCc1cc(Cc2ccc(OC)cc2)n(-c2ccc(Cl)cc2Cl)n1 [Example 22, 1-[1-{2,4-Dichlorophenyl)-5-(4-methoxybenzyl)-1H-pyrazol-3-yl]-N-methylmethanamine]
Ki [1, 2]: 3000 to 5000 nM
Ki (human μ-opioid receptor; [3]): > 500 nM

SMILES: CC(N)c1cc(Cc2ccc(O)cc2)n(C2CCCCC2)n1 (stereo not drawn) [Example 65, 4-{[3-(1-Aminoethyl)-1-cyclohexyl-1H-pyrazol-5-yl]methyl}phenol]
Ki [1]: < 500 nM
Ki (human μ-opioid receptor): > 500 nM

SMILES: CCC(N)c1cc(Cc2ccc(O)cc2)n(-c2ccc(Cl)cc2Cl)n1 (stereo not drawn) [Example 54, 4-{[3-(1-Aminopropyl)-1-(2,4-dichlorophenyl)-1H-pyrazol-5-yl]methyl}phenol]
Ki [1]: 500 to 3000 nM
Ki (human μ-opioid receptor): 100 to 500 nM

SMILES: COc1ccc(Cl)c(-n2nc(C(C)N)cc2Cc2ccc(O)cc2)c1 (stereo not drawn) [Example 28, 4-{[3-(1-Aminoethyl)-1-(2-chloro-5-methoxyphenyl)-1H-pyrazol-5-yl]methyl}phenol]
Ki [1, 2]: > 5000 nM
Ki (human μ-opioid receptor; [3]): > 500 nM

SMILES: COc1ccc(-n2nc([C@H](C)N)cc2Cc2ccc(O)cc2)c(Cl)c1 [Example 70, (S)-4-{[3-(1-Aminoethyl)-1-(2-chloro-4-methoxyphenyl)-1H-pyrazol-5-yl]methyl}phenol]
Ki [1]: < 500 nM
Ki (human μ-opioid receptor): 100 to 500 nM

SMILES: CC(N)c1cc(Cc2ccc(O)cc2)n(-c2ccc(Cl)cc2Cl)n1 (stereo not drawn) [Example 51, 4-{[3-(1-Aminoethyl)-1-(2,4-dichlorophenyl)-1H-pyrazol-5-yl]methyl}phenol]
Ki [1]: < 500 nM
Ki (human μ-opioid receptor): < 100 nM

SMILES: NCc1cc(Cc2cccc(O)c2)n(-c2ccc(Cl)cc2Cl)n1 [Example 34, 3-{[3-(Aminomethyl)-1-(2,4-dichlorophenyl)-1H-pyrazol-5-yl]methyl}phenol]
Ki [1]: 500 to 3000 nM
Ki (human μ-opioid receptor): 100 to 500 nM
